Patent publication US20190336608A1, “CATIONIC CARRIERS FOR NUCLEIC ACID DELIVERY” (priority 2016, published 2019)

Experiments:
[1] = test system: HepG2 cells; test: Transfection efficiency of HepG2 cells in vitro (GpLuc mRNA, luminescence of supernatant); type: cell-based, human; conditions: for effect on transfection efficiency (in words): added to polymer PB83, 24 h post transfection, compared to polymer alone
Protocol: This example describes the evaluation of the effect of different polymer-lipid(oid) formulations (as described under Example ▪1) on transfection efficiency on HepG2 cells (human liver carcinoma cell line). As a read-out for transfection efficiency, GpLuc mRNA (SEQ ID NO: 14) was used as a cargo. Successful transfection with the cargo leads to the translation of the luciferase protein and to a secretion of Gp luciferase protein into the cell culture supernatant.
A volume of 0.2 mL HepG2 cells (10.000 cells) were seeded in a 96 well tissue culture plate. After removing the medium from each well, 100 μL RPMI 1640 medium (with 1% Penicillin and 1% Streptomycin, 1% L-Glutamin) was added to each well. Afterwards, HepG2 cells were transfected with 100 μL transfection mix (in triplicates) of the above described polymer-lipid(oid) mRNA complexes and respective controls (in triplicates), and cells were incubated at 37° C. and 5% CO2 for 90 minutes. After incubation, 150 μL medium was exchanged with 150 μL fresh RPMI 1640 medium supplemented with 10% fetal calf serum. Twenty-four hours post transfection, 10 μL of supernatant of each well was extracted and used for further luminescence analysis (see below).
A volume of 10 μL supernatant was transferred to a 96 well plate for GpLuc measurement. Then, coelenterazine working solution (100 μM) was prepared (1 mL coelenterazine stock solution (4.72 mM in EtOH) in 49 mL phosphate buffered saline supplemented with 5 mM NaCl, pH 7.2). A volume of 100 μL coelenterazine working solution was used as a substrate for GpLuc and measured after 5 seconds in a commercially available microplate reader.

[2] = test system: Sol8 muscle cells; test: Transfection efficiency of differentiated Sol8 muscle cells in vitro (GpLuc mRNA); type: cell-based, mouse; conditions: added to polymer PB83, low- and high-charge ratio complexes, 24 h post transfection
Description: The purpose of this example is to assess the effect of lipid additives such as permanently cationic lipids or lipidoids on transfection/expression efficiency in Sol8 cells. […] Sol8 is a myogenic cell line isolated by Daubas et al. from primary cultures of soleus muscle taken from the leg of a normal C3H mouse. As a read-out for transfection efficiency, GpLuc mRNA (SEQ ID NO: 14) was used as the cargo. A successful transfection with the cargo leads to the translation of the luciferase protein and to a secretion of Gp luciferase protein into the cell culture supernatant. For further details on the GpLuc mRNA cargo see Example 1.
For a subset on hydrogel, a volume of 0.2 mL Sol8 cells (20.000 cells) were seeded in 96 well glass bottom plates (Softwell Hydrogel coated with collagen (elasticity E=12 kPa)) on day 1. For another subset without hydrogel, a volume of 0.2 mL with 10.000 Sol8 cells per well were seeded in a 96 well glass bottom plates.
After removing the medium from each well, 100 μL DMEM medium (with 2% horse serum) was added to each well. Afterwards, on day 2, Sol8 cells were transfected with 100 μL transfection mix of polymer-lipid(oid) complexes (in triplicates without serum) and respective controls (also in triplicates), and cells were incubated at 37° C. and 5% CO2 for 120 minutes (non-hydrogel subset) or respectively 90 minutes (hydrogel subset). After incubation, 150 μL medium was exchanged with 150 μL fresh DMEM medium supplemented with 10% fetal calf serum.
Twenty-four hours post transfection, i.e. on day 3, 10 μL of supernatant of each well was extracted and used for quantification of protein expression (measurement of GpLuc) via luminescence analysis as described above.

[3] = test system: hemagglutinin (HA) protein of influenza A virus (A/Netherlands/602/2009 (H1N1)); test: Hemagglutination inhibition assay after intramuscular vaccination with HA-mRNA and 3-C12-OH (second Example 7); type: in vivo; conditions: Balb/c mice, 10 μg HA-mRNA R2564 with 3-C12-OH, i.m.; after prime and boost vaccination
[4] = test system: hemagglutinin (HA) protein of influenza A virus (A/Netherlands/602/2009 (H1N1)); test: ELISA of influenza specific IgG1 and IgG2a antibodies in sera of vaccinated mice; type: in vivo; conditions: Balb/c mice, 10 μg HA-mRNA with 3-C12-OH i.m.; 21 days after prime and 14 days after boost
[5] = test system: hemagglutinin (HA) protein of influenza A virus (A/Netherlands/602/2009 (H1N1)); type: in vivo; conditions: Balb/c mice, 10 μg HA-mRNA with 3-C12-OH i.m.; splenocytes 14 days after boost

| Structure (SMILES) | increase in transfection efficiency compared to transfections with polymer alone ([1]; combination with polymer PB83, high-charge complexes N/P 2, N/P 4, N/P 6, 24 h post transfection) | effect on transfection efficiency / expression level (in words) [2] | effect on transfection efficiency (in words) [1] | antibody titers against the HA protein compared to HA-mRNA (R2564) alone [3] | functional antibody titers, IgG1 subtype, compared to mRNA without lipid [4] | functional antibody titers, IgG2a subtype, compared to mRNA without lipid [4] | IFNy production compared to non-lipid-formulated mRNA [5] |
| --- | --- | --- | --- | --- | --- | --- | --- |
| CCCCCCCC/C=C\CCCCCCCC(=O)OCC(C[N+](C)(C)C)OC(=O)CCCCCCC/C=C\CCCCCCCC (centres unmarked) [DOTAP, 1,2-dioleoyl-3-trimethylammonium-propane, reference compound] | up to 3 log units | effective | – | – | – | – | – |
| CCCCCCCCCCC(O)CNCCN(CCNCC(O)CCCCCCCCCC)CCNCC(O)CCCCCCCCCC (centres unmarked) [3-C12-OH] | – | profound increase | profound increase | significantly higher | significantly higher | significantly higher | significant increased |
| CCCCCCCCCCC(O)C[N+](C)(C)CCN(CC[N+](C)(C)CC(O)CCCCCCCCCC)CC[N+](C)(C)CC(O)CCCCCCCCCC (centres unmarked) [3-C12-OH-cat] | – | – | profound increase | – | – | – | – |
| CCCCCCCCCCCCNCCN(CCNCCCCCCCCCCCC)CCNCCCCCCCCCCCC [3-C12] | – | profound increase | profound increase | – | – | – | – |
